Results as given in PubChem BioAssay AID2060605 (Molecular Pharmacology Branch, DTP, NCI, 2025).
Several values for one entry are separate records, joined by “and”; a condition that tells them apart may be missing. Equal entries are not always repeated. Values belong to the compound of their own block, whether it stands above or below them.

Test system: 947758-054-R-J2-PDC spheroid growth, percent test/control
Assay: Anticancer human tumor 947758-054-R-J2-PDC patient-derived colon adenocarcinoma cell line growth inhibition [CLK]
Conditions: spheroids with HUVEC and MSC; for viability, T/C: stronger effect = lower value
Excerpt: A high-throughput screen of multi-cell type tumor spheroids was designed to identify active combinations of […] and targeted small molecules. Complex spheroids include a stromal component modeled by human endothelial cells (HUVEC) and fibroblasts modeled by human mesenchymal stem cells (MSCs). The concentration ranges selected for each drug and investigational agent were based upon clinically achievable concentrations if the clinical Cmax of the agent was known.
Compounds. The drugs and investigational agents: cirtuvivint (SM08502; NSC835563), CC-671 (NSC850746), vemurafenib (NSC761431), tapotoclax (NSC804041), sotorasib (NSC818433), adagrasib (NSC831453), MRTX-1133 (NSC836407), BAY2416964 (NSC825713), copanlisib (NSC816437), inavolisib (NSC800729), abemaciclib (NSC768073), osimertinib (NSC779217), entinostat (NSC756642), eltanexor (KPT-8602, NSC794443), venetoclax (NSC766270), ceralasertib (NSC777638), bortezomib (NSC756655), olaparib (NSC753686), talazoparib (NSC767125), alisertib (NSC759677), peposertib (NSC802822), gemcitabine (NSC613327), 5-fluorouracil (NSC19893), SN-38 (NSC673596), oxaliplatin (NSC266046), paclitaxel (NSC125973), and doxorubicin (NSC123127), were obtained from the National Cancer Institute (NCI) Developmental Therapeutics Program Chemical Repository. The FDA-approved anticancer drug set is available from the Developmental Therapeutics Program at https://dtp.cancer.gov/organization/dscb/obtaining/available plates.htm. […] The stock solutions were prepared in dimethyl sulfoxide (DMSO, Sigma-Aldrich, St. Louis, MO, cat. D2650), except for the platinum complexes which were prepared in saline (Quality Biological, Gaithersburg, MD, cat. 114-055-101), at 800-fold the tested concentration and stored at -70 degrees C prior to their use. All drugs and investigational agents were tested over a range starting from a high concentration at or near the clinical Cmax and decreasing in half-log increments. If the clinical Cmax for an agent had not been determined, the highest concentration tested was 10 microM.
Cell Culture. All cells were maintained in an incubator at 37 degrees C and 5% CO2 with 95% humidity. The PDC lines were cultured according to standard operating procedures established by the NCI PDMR. Briefly, all PDCs were thawed and cultured in Matrigel-coated flasks prepared with a working solution of 1X Ham's F-12 nutrient mix, without supplementation (Invitrogen, Waltham, MA, cat. 11765054), 100 U/mL penicillin-streptomycin (Invitrogen, cat. 15140122), and 2.5% Matrigel (Corning Inc., Corning, NY, cat. 354248) for the first three passages. The 947758-054-R-J2-PDC line was cultured in 6B/Colon 1A media, which includes advanced DMEM/F-12 (Thermo Fisher Scientific, cat. 12634028), 10 mM HEPES (Thermo Fisher Scientific, cat. 15630080), 1X GlutaMAX supplement (Thermo Fisher Scientific, cat. 35050061), 0.1 mg/mL primocin (InvivoGen, cat. ant-pm-2), 10% defined fetal bovine serum, heat inactivated (HyClone Laboratories Inc., cat. SH30070.03HI), 1.25 mM N-Acetyl-L-cysteine (Sigma-Aldrich, cat. A9165), 10 mM nicotinamide (Sigma-Aldrich, cat. N0636), 1X B-27 supplement (Thermo Fisher Scientific, cat. 17504044), 1X N-2 supplement (Thermo Fisher Scientific, cat. 17502048), and 10 microM Y-27632 dihydrochloride (Tocris Bioscience, cat. 1254). The 876862-298-R-J1-PDC was cultured in 6E media, which includes all 6B/Colon 1A media components plus 50% L-WRN conditioned media (ATCC, cat. CRL-3276), 50 ng/mL recombinant human EGF recombinant protein (hEGF; Thermo Fisher Scientific, cat. PHG0311), 10 ng/mL recombinant human fibroblast growth factor 10 (hGFG-10; PeproTech, cat. 100-26), 1 ng/mL recombinant human fibroblast growth factor 2 (hFGF-2; PeproTech, cat. 100-18B), and 1 µM prostaglandin E2 (PGE2; Tocris, cat. 2296). The 227483-062-R1-J1-PDC line was cultured in Panc media, containing all 6E components except hFGF-2, with the addition of 500 nM SB-431542 (Selleckchem, cat. S1067) and 10 nM gastrin (Tocris, cat. 3006). […]
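Further: spheroids exposed to compounds for one week before readout.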
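Wherever viability, T/C is given: 100% = DMSO vehicle control wells.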

- IC50 (curve of compound): > 0.3 µM
Structure (SMILES): C=CC(=O)Nc1cc(Nc2nccc(-c3cn(C)c4ccccc34)n2)c(OC)cc1N(C)CCN(C)C
- viability, T/C (compound 0.000949 µM): 85.6% and 108%
- viability, T/C (compound 0.003 µM): 62.3% and 94.7%
- viability, T/C (compound 0.00949 µM): 90.8% and 103%
- viability, T/C (compound 0.03 µM): 94.7% and 69.1%
- viability, T/C (compound 0.0949 µM): 74.3% and 92.2%
- viability, T/C (compound 0.3 µM): 87.2% and 78.5%

- IC50 (curve of compound): 1.29 µM and 1.43 µM
Structure (SMILES): O=c1[nH]cc(F)c(=O)[nH]1
- viability, T/C (compound 0.0316 µM): 91.8% and 91.2%
- viability, T/C (compound 0.1 µM): 103% and 99%
- viability, T/C (compound 0.316 µM): 129% and 86.8%
- viability, T/C (compound 1 µM): 54.9% and 55.9%
- viability, T/C (compound 3.16 µM): 34.4% and 37.1%
- viability, T/C (compound 10 µM): 31.2% and 36.5%

- IC50 (curve of first compound, second compound 0.0316 µM): 7.66 µM
- IC50 (curve of first compound, second compound 0.1 µM): 5.3 µM
- IC50 (curve of first compound, second compound 0.316 µM): < 0.0316 µM
- IC50 (curve of first compound, second compound 1 µM): < 0.0316 µM
- IC50 (curve of first compound, second compound 3.16 µM): < 0.0316 µM
- IC50 (curve of first compound, second compound 10 µM): < 0.0316 µM
Structure (SMILES): COC1C=CCC(C)C(C)S(=O)(=O)NC(=O)c2ccc3c(c2)N(CC2CCC21)CC1(CCCc2cc(Cl)ccc21)CO3 (stereo not given) + CNC(=O)c1ccc(Nc2nc(OC3CCCC3)c3c(-c4ccc5nc(C)oc5c4)c[nH]c3n2)c(OC)c1
- viability, T/C (second compound 0.0316 µM, first compound 0.0316 µM): 75.6%
- viability, T/C (second compound 0.0316 µM, first compound 0.1 µM): 83.8%
- viability, T/C (second compound 0.0316 µM, first compound 0.316 µM): 90.3%
- viability, T/C (second compound 0.0316 µM, first compound 1 µM): 116%
- viability, T/C (second compound 0.0316 µM, first compound 3.16 µM): 95.3%
- viability, T/C (second compound 0.0316 µM, first compound 10 µM): 37.3%
- viability, T/C (second compound 0.1 µM, first compound 0.0316 µM): 73.4%
- viability, T/C (second compound 0.1 µM, first compound 0.1 µM): 71.2%
- viability, T/C (second compound 0.1 µM, first compound 0.316 µM): 55.5%
- viability, T/C (second compound 0.1 µM, first compound 1 µM): 65.1%
- viability, T/C (second compound 0.1 µM, first compound 3.16 µM): 72.1%
- viability, T/C (second compound 0.1 µM, first compound 10 µM): 28.5%
- viability, T/C (second compound 0.316 µM, first compound 0.0316 µM): 61.8%
- viability, T/C (second compound 0.316 µM, first compound 0.1 µM): 53.6%
- viability, T/C (second compound 0.316 µM, first compound 0.316 µM): 37.2%
- viability, T/C (second compound 0.316 µM, first compound 1 µM): 44.1%
- viability, T/C (second compound 0.316 µM, first compound 3.16 µM): 49.2%
- viability, T/C (second compound 0.316 µM, first compound 10 µM): 16.7%
- viability, T/C (second compound 1 µM, first compound 0.0316 µM): 37.5%
- viability, T/C (second compound 1 µM, first compound 0.1 µM): 36.1%
- viability, T/C (second compound 1 µM, first compound 0.316 µM): 24.4%
- viability, T/C (second compound 1 µM, first compound 1 µM): 29.5%
- viability, T/C (second compound 1 µM, first compound 3.16 µM): 26.4%
- viability, T/C (second compound 1 µM, first compound 10 µM): 12.4%
- viability, T/C (second compound 3.16 µM, first compound 0.0316 µM): 28.3%
- viability, T/C (second compound 3.16 µM, first compound 0.1 µM): 24.4%
- viability, T/C (second compound 3.16 µM, first compound 0.316 µM): 21.8%
- viability, T/C (second compound 3.16 µM, first compound 1 µM): 18.2%
- viability, T/C (second compound 3.16 µM, first compound 3.16 µM): 18.1%
- viability, T/C (second compound 3.16 µM, first compound 10 µM): 15.3%
- viability, T/C (second compound 10 µM, first compound 0.0316 µM): 29.4%
- viability, T/C (second compound 10 µM, first compound 0.1 µM): 23.3%
- viability, T/C (second compound 10 µM, first compound 0.316 µM): 13.2%
- viability, T/C (second compound 10 µM, first compound 1 µM): 15.4%
- viability, T/C (second compound 10 µM, first compound 3.16 µM): 10.6%
- viability, T/C (second compound 10 µM, first compound 10 µM): 13.5%

- IC50 (curve of compound): > 10 µM
Structure (SMILES): C=CC(=O)N1CCN(c2nc(=O)n(-c3c(C)ccnc3C(C)C)c3nc(-c4c(O)cccc4F)c(F)cc23)C(C)C1 (stereo not given)
- viability, T/C (compound 0.0316 µM): 115% and 77.6%
- viability, T/C (compound 0.1 µM): 77.8% and 82.6%
- viability, T/C (compound 0.316 µM): 106% and 101%
- viability, T/C (compound 1 µM): 75.6% and 75%
- viability, T/C (compound 3.16 µM): 81.2% and 90.3%
- viability, T/C (compound 10 µM): 94.7% and 77.3%

- IC50 (curve of compound): 8.14 µM and 8.09 µM
Structure (SMILES): COC1C=CCC(C)C(C)S(=O)(=O)NC(=O)c2ccc3c(c2)N(CC2CCC21)CC1(CCCc2cc(Cl)ccc21)CO3 (stereo not given)
- viability, T/C (compound 0.0316 µM): 99.1% and 84.9%
- viability, T/C (compound 0.1 µM): 77.1% and 86.7%
- viability, T/C (compound 0.316 µM): 101% and 100%
- viability, T/C (compound 1 µM): 75.3% and 81.2%
- viability, T/C (compound 3.16 µM): 94.4% and 83.8%
- viability, T/C (compound 10 µM): 41.3% and 42.6%
